# Columns and labels:
# human cathepsin F = molecular target: T1, human cathepsin F (Homo sapiens, UniProt Q9UBX1); assay: Cathepsin F assay (hCat F); format: biochemical; details: human cathepsin F 10 nM, Z-Phe-Arg-AMC 8 μM, pH 5.5, 15 min preincubation; read-out: hCat F IP
# T1 sequence (Q9UBX1 271-484): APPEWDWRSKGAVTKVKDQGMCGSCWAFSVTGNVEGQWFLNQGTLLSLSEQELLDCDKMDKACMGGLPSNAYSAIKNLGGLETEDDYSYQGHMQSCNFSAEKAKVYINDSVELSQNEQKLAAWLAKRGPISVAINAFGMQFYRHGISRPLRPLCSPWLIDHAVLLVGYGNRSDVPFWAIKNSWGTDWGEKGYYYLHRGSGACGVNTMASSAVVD
# Procedure: Cathepsin F assay (hCat F)
# (§1) Serial dilutions (⅓) from 500 μM down to 0.025 μM of test compounds were prepared in dimethyl sulfoxide (DMSO). Then 0.5 μL of DMSO from each dilution were added to 18.75 μL of assay buffer (MES, 50 mM (pH 5.5); EDTA, 2.5 mM; DTT, 2.5 mM and 10% DMSO) containing human cathepsin F (10 nM) in assay buffer solution. The assay solutions were mixed for 5-10 seconds on a shaker plate and incubated for 15 minutes at room temperature. Z-Phe-Arg-AMC (8 μM) in 6.25 μL of assay buffer was added to the assay solutions. Hydrolysis of the coumarin leaving group (AMC) was followed by spectrofluorometry (Exp, =360 nm; EmX=460 nm) for 20 minutes. Percent of inhibition were calculated by fitting experimental values to standard mathematical model for dose response curve.
# human cathepsin K = human cathepsin K (UniProt P43236); assay: Cathepsin K Assay (hrbCat K); format: biochemical; details: human cathepsin K 0.4 nM, Z-Leu-Arg-AMC 8 μM, pH 5.5, 15 min preincubation; read-out: hrbCat K IP
# Procedure: Cathepsin K Assay (hrbCat K)
# as §1, with “K (0.4” for “F (10”, “Z-Leu-Arg-AMC” for “Z-Phe-Arg-AMC”, “(Exλ=360” for “(Exp, =360”, “Emλ=460” for “EmX=460”, “30” for “20”
IC50 (human cathepsin F),IC50 (human cathepsin K),SMILES
1290 nM,2.31 nM,"C[C@@H]1CC(F)(F)CC[C@@H]1c1nc(-c2ccc(N3CCS(=O)(=O)CC3)cc2)c([C@@H]2CCCC[C@H]2C(=O)NC2(C#N)CC2)o1 [Example 107, (1R,2R)-N-(1-cyanocyclopropyl)-2-(2-((1S,2R)-4,4-difluoro-2-methylcyclohexyl)-4-(4-(1,1-dioxidothiomorpholino)phenyl)oxazol-5-yl)cyclohexanecarboxamide]"
2860 nM,4.11 nM,"N#CC1(NC(=O)[C@@H]2CCCC[C@H]2c2oc(-c3cccc(C(F)(F)F)n3)nc2-c2ccc(N3CCS(=O)(=O)CC3)cc2)CC1 [Example 100, (1R,2R)-N-(1-cyanocyclopropyl)-2-(4-(4-(1,1-dioxidothiomorpholino)phenyl)-2-(6-(trifluoromethyl)pyridin-2-yl)oxazol-5-yl)cyclohexanecarboxamide]"
14 nM,0.54 nM,"N#CC(CC(F)(F)F)NC(=O)[C@@H]1CC(F)(F)CC[C@H]1c1oc(C(F)(F)C(F)(F)F)nc1-c1ccc(C(=O)N2CCOCC2)cc1 (single isomer, unassigned) [Example 143, (1R,2R)-N-((S or R)-1-cyano-3,3,3-trifluoropropyl)-5,5-difluoro-2-(4-(4-(morpholine-4-carbonyl)phenyl)-2-(perfluoroethyl)oxazol-5-yl)cyclohexanecarboxamide]"
209 nM,0.61 nM,"N#CC1(NC(=O)[C@@H]2CC(F)(F)CC[C@H]2c2oc(CC(F)(F)F)nc2-c2ccc(N3CCS(=O)(=O)CC3)cc2)CC1 [Example 16, (1R,2R)-N-(1-cyanocyclopropyl)-2-(4-(4-(1,1-dioxidothiomorpholino)phenyl)-2-(2,2,2-trifluoroethyl)oxazol-5-yl)-5,5-difluorocyclohexane-carboxamide]"
2550 nM,2.83 nM,"N#CC1(NC(=O)[C@@H]2CCCC[C@H]2c2oc(-c3cccnn3)nc2-c2ccc(N3CCS(=O)(=O)CC3)cc2)CC1 [Example 97, (1R,2R)-N-(1-cyanocyclopropyl)-2-(4-(4-(1,1-dioxidothiomorpholino)phenyl)-2-(pyridazin-3-yl)oxazol-5-yl)cyclohexanecarboxamide]"
1840 nM,1.35 nM,"Cc1ncc(-c2nc(-c3ccc(N4CCS(=O)(=O)CC4)cc3)c([C@@H]3CCCC[C@H]3C(=O)NC3(C#N)CC3)o2)cn1 [Example 103, (1R,2R)-N-(1-cyanocyclopropyl)-2-(4-(4-(1,1-dioxidothiomorpholino)phenyl)-2-(2-methylpyrimidin-5-yl)oxazol-5-yl)cyclohexanecarboxamide]"
734 nM,1.84 nM,COc1ccc(-c2nc(-c3ccc(N4CCS(=O)(=O)CC4)cc3)c([C@@H]3CCCC[C@H]3C(=O)NC3(C#N)CC3)o2)cc1 [Example 70]
306 nM,1.04 nM,"N#CC1(NC(=O)[C@@H]2CC(F)(F)CC[C@H]2c2oc(C(F)(F)C(F)(F)F)nc2-c2ccc(C(=O)N3CCOCC3)cc2)CC1 [Example 119, (1R,2R)-N-(1-cyanocyclopropyl)-5,5-difluoro-2-(4-(4-(morpholine-4-carbonyl)phenyl)-2-(perfluoroethyl)oxazol-5-yl)cyclohexanecarboxamide]"
1210 nM,1.38 nM,"COC(c1ccccc1)(c1nc(-c2ccc(N3CCS(=O)(=O)CC3)cc2)c([C@@H]2CCCC[C@H]2C(=O)NC2(C#N)CC2)o1)C(F)(F)F (mixture of isomers) [Example 116, (1R,2R)-N-(1-cyanocyclopropyl)-2-(4-(4-(1,1-dioxidothiomorpholino)phenyl)-2-((R and S)-2,2,2-trifluoro-1-methoxy-1-phenylethyl)oxazol-5-yl)cyclohexanecarboxamide]"
230 nM,0.66 nM,"CC(C#N)NC(=O)[C@@H]1CCCC[C@H]1c1oc(-c2ccc(F)cc2F)nc1-c1ccc(N2CCS(=O)(=O)CC2)cc1 (single isomer, unassigned) [Example 46, (1R,2R)-N-((S or R)-1-cyanoethyl)-2-(2-(2,4-difluorophenyl)-4-(4-(1,1-dioxidothiomorpholino)phenyl)oxazol-5-yl)cyclohexanecarboxamide]"
573 nM,0.39 nM,"N#CC1(NC(=O)[C@@H]2CCCC[C@H]2c2oc(-c3ccc(F)c(F)c3)nc2-c2ccc(N3CCS(=O)(=O)CC3)cc2)CC1 [Example 1, (1R,2R)—N-(1-Cyanocyclopropyl)-2-(2-(3,4-difluorophenyl)-4-(4-(1,1-dioxidothiomorpholino)phenyl)oxazol-5-yl)cyclohexanecarboxamide]"
229 nM,0.67 nM,"N#CCNC(=O)[C@@H]1CCCC[C@H]1c1oc(-c2ccc(F)cc2F)nc1-c1ccc(N2CCS(=O)(=O)CC2)cc1 [Example 44, (1R,2R)-N-(cyanomethyl)-2-(2-(2,4-difluorophenyl)-4-(4-(1,1-dioxidothiomorpholino)phenyl)oxazol-5-yl)cyclohexanecarboxamide]"
192 nM,1.59 nM,"N#CC1(NC(=O)[C@@H]2CCCC[C@H]2c2oc(-c3ccc(F)cc3F)nc2-c2ccc(N3CCS(=N)(=O)CC3)cc2)CC1 [Example 106, (1R,2R)-N-(1-cyanocyclopropyl)-2-(2-(2,4-difluorophenyl)-4-(4-(1-imino-1-oxidothiomorpholino)phenyl)oxazol-5-yl)cyclohexanecarboxamide]"
446 nM,1.06 nM,"N#CC(CC(F)(F)F)NC(=O)[C@@H]1CC(F)(F)CC[C@H]1c1oc(C(F)(F)C(F)(F)F)nc1-c1ccc(C(=O)N2CCOCC2)cc1 (single isomer, unassigned) [Example 142, (1R,2R)-N-((R or S)-1-cyano-3,3,3-trifluoropropyl)-5,5 - difluoro-2-(4-(4-(morpholine-4-carbonyl)phenyl)-2-(perfluoroethyl)oxazol-5-yl)cyclohexanecarboxamide]"
2410 nM,1.5 nM,"CC(C)(C)c1nc(-c2ccc(N3CCS(=O)(=O)CC3)cc2)c([C@@H]2CC[C@H](F)C[C@H]2C(=O)NC2(C#N)CC2)o1 [Example 147, (1R,2R,5S)-2-(2-(tert-butyl)-4-(4-(1,1-dioxidothiomorpholino)phenyl)oxazol-5-yl)-N-(1-cyanocyclopropyl)-5-fluorocyclohexane-carboxamide]"
502 nM,1.04 nM,"N#CC1(NC(=O)[C@@H]2CCCC[C@H]2c2oc(-c3cccc(OC(F)F)c3)nc2-c2ccc(N3CCS(=O)(=O)CC3)cc2)CC1 [Example 68, (1R,2R)-N-(1-cyanocyclopropyl)-2-(2-(3-(difluoromethoxy)phenyl)-4-(4-(1,1-dioxidothiomorpholino)phenyl)oxazol-5-yl)cyclohexanecarboxamide]"
1390 nM,2.08 nM,"C[C@H]1CC(F)(F)CC[C@@H]1c1nc(-c2ccc(N3CCS(=O)(=O)CC3)cc2)c([C@@H]2CCCC[C@H]2C(=O)NC2(C#N)CC2)o1 [Example 108, (1R,2R)-N-(1-cyanocyclopropyl)-2-(2-((1S,2S)-4,4-difluoro-2-methylcyclohexyl)-4-(4-(1,1-dioxidothiomorpholino)phenyl)oxazol-5-yl)cyclohexanecarboxamide]"
639 nM,1.23 nM,"N#CC1(NC(=O)[C@@H]2CCCC[C@H]2c2oc(-c3ccccc3OC(F)(F)F)nc2-c2ccc(N3CCS(=O)(=O)CC3)cc2)CC1 [Example 63, (1R,2R)-N-(1-cyanocyclopropyl)-2-(4-(4-(1,1-dioxidothiomorpholino)phenyl)-2-(2-(trifluoromethoxy)phenyl)oxazol-5-yl)cyclohcxanecarboxamide]"
702 nM,2.11 nM,"CS(=O)(=O)C1CN(c2ccc(-c3nc(-c4ccc(F)cc4F)oc3[C@@H]3CCCC[C@H]3C(=O)NC3(C#N)CC3)cc2)C1 [Example 39, (1R,2R)-N-(1-cyanocyclopropyl)-2-(2-(2,4-difluorophenyl)-4-(4-(3-(methylsulfonyl)azetidin-1-yl)phenyl)oxazol-5-yl) cyclohexanecarboxamide]"
1490 nM,2.43 nM,"N#CC1(NC(=O)[C@@H]2CCCC[C@H]2c2oc(-c3ncccc3C(F)(F)F)nc2-c2ccc(N3CCS(=O)(=O)CC3)cc2)CC1 [Example 80, (1R,2R)-N-(1-cyanocyclopropyl)-2-(4-(4-(1,1-dioxidothiomorpholino)phenyl)-2-(3-(trifluoromethyl)pyridin-2-yl)oxazol-5-yl)cyclohexanecarboxamide]"

# Source: US9458181B2, “Cathepsin cysteine protease inhibitors” (Merck Sharp & Dohme Corp., priority 2013, dated 2016)
